Here are results for nine compounds from ChEMBL document CHEMBL1136115, “Constrained phytoestrogens and analogues as ERbeta selective ligands” (Bioorg Med Chem Lett, 2003).

As a reminder, the IC50 is the concentration needed to halve the response being measured.

One experiment deals with T1, Estrogen receptor (Homo sapiens, UniProt P03372).
T1 sequence (P03372 whole entry): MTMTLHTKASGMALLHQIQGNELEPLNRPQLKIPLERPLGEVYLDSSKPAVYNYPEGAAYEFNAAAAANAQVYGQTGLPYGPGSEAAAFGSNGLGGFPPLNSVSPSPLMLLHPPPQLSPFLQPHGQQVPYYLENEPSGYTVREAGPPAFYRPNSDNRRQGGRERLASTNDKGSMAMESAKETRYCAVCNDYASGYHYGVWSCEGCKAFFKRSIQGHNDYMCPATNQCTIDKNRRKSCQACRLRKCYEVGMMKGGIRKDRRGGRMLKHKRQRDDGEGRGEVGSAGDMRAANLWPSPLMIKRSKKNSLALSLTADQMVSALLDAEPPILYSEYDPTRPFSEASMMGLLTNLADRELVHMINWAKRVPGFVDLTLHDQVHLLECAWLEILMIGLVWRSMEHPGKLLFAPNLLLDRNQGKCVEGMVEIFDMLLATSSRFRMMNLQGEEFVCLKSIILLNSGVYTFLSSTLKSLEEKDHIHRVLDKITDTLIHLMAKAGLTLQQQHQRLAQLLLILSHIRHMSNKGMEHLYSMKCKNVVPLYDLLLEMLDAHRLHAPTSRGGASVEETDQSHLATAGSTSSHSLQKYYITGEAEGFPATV

Experiment [1] addresses T2, Estrogen receptor beta (Homo sapiens, UniProt Q92731).
Description: Binding affinity towards human estrogen receptor beta (ERbeta)
Experiment [2] addresses T3, Estrogen receptor (Homo sapiens) (UniProt P03372).
T3 sequence (whole entry): T1 sequence (P03372 whole entry)
The experiment is described as follows: Effective dose in ERalpha-MCF-7 cells. The experiment is classed as functional, cell-based.

Experiment [3] deals with T3, Estrogen receptor (Homo sapiens). The experiment is described as follows: Efficacy in ER alpha-MCF-7 cells. The experiment is classed as functional, cell-based.
Experiment [4] addresses T2, Estrogen receptor beta. As to the kind of experiment: Effective dose in metallothionein-II using metallothionein assay.

T2 sequence (Q92731 whole entry): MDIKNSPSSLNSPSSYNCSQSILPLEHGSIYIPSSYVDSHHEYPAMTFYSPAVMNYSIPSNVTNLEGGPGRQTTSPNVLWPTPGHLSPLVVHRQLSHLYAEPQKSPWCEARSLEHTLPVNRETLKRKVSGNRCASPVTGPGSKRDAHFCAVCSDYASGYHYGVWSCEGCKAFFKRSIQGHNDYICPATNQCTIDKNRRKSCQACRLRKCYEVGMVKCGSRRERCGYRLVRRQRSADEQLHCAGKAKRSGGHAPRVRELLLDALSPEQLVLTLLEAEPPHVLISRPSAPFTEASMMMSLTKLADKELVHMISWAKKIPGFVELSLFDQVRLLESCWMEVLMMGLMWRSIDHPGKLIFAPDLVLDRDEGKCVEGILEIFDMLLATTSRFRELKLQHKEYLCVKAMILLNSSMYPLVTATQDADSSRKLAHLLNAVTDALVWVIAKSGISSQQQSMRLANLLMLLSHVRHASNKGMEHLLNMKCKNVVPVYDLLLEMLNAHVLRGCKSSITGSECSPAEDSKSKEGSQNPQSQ

Compound `O=c1c2cc(O)ccc2oc2c1oc1ccc(O)cc12` yielded an IC50 against Estrogen receptor of 0.18 µM.

Take `O=c1c2oc3c(Br)cc(O)cc3c2oc2cc(O)cc(O)c12`: the figures for the IC50 against Estrogen receptor beta [1] and at Estrogen receptor were 0.343 µM and 1.26 µM, respectively.

`O=c1c2ccc(O)cc2oc2c1oc1ccccc12` gave an IC50 against Estrogen receptor greater than 5 µM.

For `O=c1c2oc3ccc(O)cc3c2oc2cc(O)cc(O)c12`, the figures for the ED50 (in experiment [2]; at Estrogen receptor beta [4]) were greater than 0.5 µM and 0.018 µM, respectively. In addition, the Efficacy in experiment [3] is 58%. This compound gave an IC50 against Estrogen receptor beta [1] of 0.042 µM.

Take `N#Cc1cc(O)cc2c1oc1c(=O)c3c(O)cc(O)cc3oc12`: the IC50 turned out to be 1.34 µM at Estrogen receptor beta [1] and 1.55 µM on Estrogen receptor.

`O=c1c2c(O)cc(O)cc2oc2oc3cc(O)ccc3c12`: it took 0.0017 µM to reach half-maximal inhibition against Estrogen receptor beta [1] (IC50).

In the case of `N#Cc1cc(O)cc2c1oc1c(=O)c3ccc(O)cc3oc12`, the IC50 at Estrogen receptor beta [1] and at Estrogen receptor was greater than 5 µM in each case.

At Estrogen receptor, `O=c1c2ccccc2oc2c1oc1cc(O)ccc12` gave an IC50 greater than 5 µM.

Consider `O=c1c2ccc(O)cc2oc2c1oc1c(Br)cc(O)cc12`, for which the IC50 at Estrogen receptor beta [1] was 1.74 µM; at Estrogen receptor, greater than 5 µM.
